From patent US4939256A, “Novel platinum complex, antineoplastic agent containing the same, and intermediate therefor” (Kanebo Ltd., priority 1988, dated 1990)

Legend:
Leukemia P388 = assay: Experiment 1: Test of antitumor activity (increase in life span of tumor-bearing mice); type: in vivo, BDF1 male mice; details: intraperitoneal, P388 in BDF1 mice; for Increase in life span (ILS %): observed until 30th day
Description: (a) Animals: BDF1 male mice (6 week age, weighing 22 to 25 g, 4 animals per each group)
(b) Tumor cells: Leukemia P388
Tumor cells (1×10^6 per mouse) were intraperitoneally inoculated into mice. After 24 hours, a solution of each test compound in physiological saline solution was intraperitoneally administered to the mice. In control mice, only physiological saline solution was intraperitoneally administered.
Survival days of the mice was observed until 30th day after the inoculation of tumor cells. Mean survival days (X) in the mice administered with test compound and mean survival days (Y) in the control mice were measured, and the increase in life span (ILS %) was calculated by the following equation: [formula]

kidney = assay: Experiment 3: Side effect on kidney (blood urea nitrogen value); type: in vivo, BDF1 male mice; details: intraperitoneal, 4th day after administration, versus control mice
Description: It was studied in the blood urea nitrogen value (BUN value) as an index.
(§1) (a) Animal: BDF1 male mice (6 week age, weighing 22-25 g, 5 animals per each group)
Each test compound was dissolved in a physiological saline solution, and the solution (0.1 ml/10 g body weight) was intraperitoneally administered. In the control mice, only the physiological saline solution (0.1 ml/10 g body weight) was intraperitoneally administered. On the 4th day after the administration, the test compound-administered mice and the control mice were bleeded from the femoral artery, and the collected blood was centrifuged at 3,000 r.p.m. at 4° C. for 15 minutes to give a test serum. BUN value in the test serum was measured by a urease indophenol method using a kit for measuring urea nitrogen (Urea NB-Test Wako, manufactured by Wako Pure Chemical Industries, Ltd.). That is, the above test serum (20 μl) was taken in a test tube and thereto was added color reagent A [a mixture of a urease solution (one part by volume) and phosphate buffer (pH 7.0, 20 parts by volume), 2.0 ml], and the mixture was mixed well and incubated at 37° C. for 15 minutes. […]
The absorbance of the standard solution and test solution was measured at 570 nm with a spectrophotometer with reference to the blank solution as a control, and BUN value in the test serum was calculated by the following equation: [formula] […]

[1] = prior art, clinically used; cited from earlier work
BDF1 male mice = assay: Experiment 4: Acute toxicity (LD50); type: in vivo; details: intraperitoneal, until 14th day, Weil method
Description: as §1
Each test compound was dissolved or suspended in a physiological saline solution, and the solution or suspension (0.1 ml/10 g body weight) was intraperitoneally administered to mice. The number of mice that died was counted until 14th day after administration of test compound, and the acute toxicity (LD50) was calculated by Weil method.

[2] = test system: Cisplatin-resistant L1210 cells (L1210/DDP) and L1210 cells; assay: Experiment 2: Effects on cisplatin-resistant tumor cells (growth inhibition, resistance index); type: cell-based; details: L1210/DDP versus L1210, from IC50 after 48 hours; for Resistance index, maximum: maximum of 2 to 4 tests; for Resistance index, Mean: mean of 2 to 4 tests; for Resistance index, minimum: minimum of 2 to 4 tests
Description: 2. Cisplatin-resistant L1210 cells (hereinafter, referred to as L1210/DDP), which is available from Cancer Chemotherapy Center, Japanese Foundation for Cancer Research
RPMI-1640 medium containing 10% (v/v) fetal bovine serum, which was prepared as follows:
RPMI-1640 (manufactured by GIBCO) (10.4 g), sodium hydrogen carbonate (1.3 g), streptomycin sulfate ([…]), penicillin G potassium ([…]) and a 1% aqueous solution of β-mercaptoethanol (40 μl) were dissolved in distilled water (one liter). To this mixture (90 parts by volume) was added fetal bovine serum (manufactured by GIBCO) (10 parts by volume) to give RPMI-1640 medium containing 10% (v/v) fetal bovine serum (hereinafter, referred to as "serum-containing RPMI-1640 medium").
L1210 cells or L1210/DDP cells were added to the serum-containing RPMI-1640 medium to prepare a cell suspension (3×10^5 cells/ml). The cell suspension (each 1 ml) was seeded onto a microplate (Falcon 3047, manufactured by Falcon) and cultivated in air containing 5% CO2 gas at 37° C. (one group, 3 wells). After cultivating for 24 hours, a solution of each test compound (1 ml) (which was prepared by dissolving each test compound in the serum-containing RPMI-1640 medium in various concentrations) was added to the medium, and the mixture was cultivated under the same conditions for 48 hours. After the cultivation, the number of viable cells was counted by Trypan Blue exclusion test method, and the mean number of viable cells in each group was calculated. Besides, in the control group, the above was repeated by using the serum-containing RPMI-1640 medium instead of the solution of test compound, and the mean number of viable cells in the control group was calculated likewise. From the mean number of viable cells in various concentration of test compound and the mean number of viable cells in the control group, the concentration required for 50% inhibition of growth (IC50) was calculated by probit method. Then, the resistance index of test compound was calculated by the following equation: [formula]
The above test was repeated for 2 to 4 times, and the mean resistance index was obtained.

Compound: N.N.[Cl][Pt][Cl] [Cisplatin, cisdiamminedichloroplatinum (II), reference compound]
- Increase in life span (ILS %) (Leukemia P388; 5 mg/kg): 108%
- Increase in life span (ILS %) (Leukemia P388; 10 mg/kg): 167%
- Increase in life span (ILS %) (Leukemia P388; 20 mg/kg): -11%
- dose showing maximum increase in life span in Experiment 1 (Leukemia P388): 10 mg/kg
- Rate of change of BUN value (%) (kidney; 10 mg/kg): +106%
- Rate of change of BUN value (%) (kidney; 15 mg/kg): +128%
- antineoplastic activity, in words [1]: excellent antineoplastic activity

Compound: a mixture of α-glycolato-(3RS)-3-aminopiperidine platinum (II) (Isomer b-1) and β-glycolato-(3RS)-3-aminopiperidine platinum (II) (Isomer b-2) [Platinum complex B-1]
- LD50 (BDF1 male mice): 57.0 mg/kg
- Increase in life span (ILS %) (Leukemia P388; 25 mg/kg): 131%
- Increase in life span (ILS %) (Leukemia P388; 50 mg/kg): 174%
- Increase in life span (ILS %) (Leukemia P388; 100 mg/kg): -45%
- dose showing maximum increase in life span in Experiment 1 (Leukemia P388): 50 mg/kg
- Resistance index, maximum [2]: 5.4
- Resistance index, Mean [2]: 4.3
- Resistance index, minimum [2]: 3.2

Compound: a mixture of α-glycolato-(3RS)-3-aminopyrrolidine platinum (II) (Isomer a-1) and β-glycolato-(3RS)-3-aminopyrrolidine platinum (II) (Isomer a-2) [Platinum complex A-3]
- LD50 (BDF1 male mice; 20160 min): 107.0 mg/kg
- Increase in life span (ILS %) (Leukemia P388; 25 mg/kg): 111%
- Increase in life span (ILS %) (Leukemia P388; 50 mg/kg): 170%
- Increase in life span (ILS %) (Leukemia P388; 100 mg/kg): 26%
- dose showing maximum increase in life span in Experiment 1 (Leukemia P388): 50 mg/kg
- Resistance index, maximum ([2]; 2880 min): 4.6
- Resistance index, Mean ([2]; 2880 min): 4.6
- Resistance index, minimum ([2]; 2880 min): 4.6

Compound: O=C1C[O][Pt]2([NH]C3CC[N]2C3)[O]1 (racemic) [Platinum complex A-2, α-glycolato-(3RS)-3-aminopyrrolidine platinum (II)]
- Increase in life span (ILS %) (Leukemia P388; 25 mg/kg): 108%
- Increase in life span (ILS %) (Leukemia P388; 50 mg/kg): 172%
- Increase in life span (ILS %) (Leukemia P388; 100 mg/kg): 115%
- dose showing maximum increase in life span in Experiment 1 (Leukemia P388): 50 mg/kg

Compound: a mixture of α-glycolato-(3RS)-3-aminopyrrolidine platinum (II) (Isomer a-1) and β-glycolato-(3RS)-3-aminopyrrolidine platinum (II) (Isomer a-2) [Platinum complex A-1]
- Increase in life span (ILS %) (Leukemia P388; 25 mg/kg): 74%
- Increase in life span (ILS %) (Leukemia P388; 50 mg/kg): 167%
- Increase in life span (ILS %) (Leukemia P388; 100 mg/kg): -43%
- dose showing maximum increase in life span in Experiment 1 (Leukemia P388): 50 mg/kg
